Assay results as given in US9708314B2, “Heterocyclic amide compound” (NISSAN CHEMICAL INDUSTRIES, LTD., priority 2013, dated 2017).

Legend:
Assay type in all cases: in vivo
[1] = tested on: Echinochloa oryzacola Vasing.; test: Test Example 1: herbicidal activity, application before weed generation in submerged conditions; conditions: Seventeenth Table; for A: Echinochloa oryzicola Vasing. (herbicidal effect grade): Application herbicide amount 320 g/ha; for A (Echinochloa oryzicola Vasing.) herbicidal ratio grade: application herbicide amount 320 g/ha
Summary of the method: (§1)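 Water-diluted emulsion formulation is applied onto flood water (4 cm deep) covering alluvial soil on the day weed seeds are sown, after transplanting 2.5 leaf stage rice. Rates are expressed per hectare. Injury or control is graded 0–5 three weeks later.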

[2] = tested on: Monochoria vaginalis; test: as above; conditions: Seventeenth Table; for C: Monochoria vaginalis (herbicidal effect grade): Application herbicide amount 320 g/ha; for C (Monochoria vaginalis) herbicidal ratio grade: application herbicide amount 320 g/ha
Summary of the method: as §1

[3] = tested on: Scirpus juncoides; test: as above; conditions: Seventeenth Table; for B: Scirpus juncoides (herbicidal effect grade): Application herbicide amount 320 g/ha; for B (Scirpus juncoides) herbicidal ratio grade: application herbicide amount 320 g/ha
Summary of the method: as §1

[4] = tested on: transplanted Oryza sativa; test: Test Example 1: effect on crop, application before weed generation in submerged conditions; conditions: Seventeenth Table; for a: transplanted Oryza sativa (effect on crop grade): Application herbicide amount 320 g/ha; for a (transplanted Oryza sativa) effect on crop grade: application herbicide amount 320 g/ha
Summary of the method: as §1

[5] = tested on: Echinochloa oryzacola Vasing.; test: Test Example 2: herbicidal activity, application during weed generation in submerged conditions; conditions: Eighteenth Table; application herbicide amount 320 g/ha
Summary of the method: (§2)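 Seeds were sown together in alluvial soil kept under 4 cm of water and grown at 25 °C to 30 °C. Once plants reached the one- to two-leaf stage, the diluted emulsion was applied to the water surface at a predetermined g/ha amount, and effects were rated 0–5 after three weeks.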

[6] = tested on: Monochoria vaginalis; test: as above; conditions: Eighteenth Table; application herbicide amount 320 g/ha
Summary of the method: as §2

[7] = tested on: Scirpus juncoides; test: as above; conditions: Eighteenth Table; application herbicide amount 320 g/ha
Summary of the method: as §2

[8] = tested on: Cyperus difformis; test: Test Example 3: herbicidal effect by application to foliage (Wagner pot, water depth 0.1-0.5 cm); conditions: Nineteenth Table, application to foliage
Summary of the method: (§3)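 Scores (0–5) reflect herbicidal ratio three weeks after a foliar spray: 0 is 5% or less, 5 is 90% or more. Plants had grown 14 days in alluvial soil pots in a 25–30 °C greenhouse before treatment with water-diluted emulsion at a set g/ha.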

[9] = tested on: Echinochloa crus-galli var. crus-galli; test: as above; conditions: Nineteenth Table, application to foliage
Summary of the method: as §3

[10] = tested on: Leptochloa chinensis; test: as above; conditions: Nineteenth Table, application to foliage
Summary of the method: as §3

[11] = application herbicide amount 320 g/ha
[12] = application herbicide amount 200 g/ha

SMILES	A: Echinochloa oryzicola Vasing. (herbicidal effect grade) [1]	C: Monochoria vaginalis (herbicidal effect grade) [2]	B: Scirpus juncoides (herbicidal effect grade) [3]	a: transplanted Oryza sativa (effect on crop grade) [4]	A (Echinochloa oryzicola Vasing.) herbicidal ratio grade [5]	C (Monochoria vaginalis) herbicidal ratio grade [6]	B (Scirpus juncoides) herbicidal ratio grade [7]	E (herbicidal effect grade) [8, 11]	H (herbicidal effect grade) [9, 11]	D (herbicidal effect grade) [10, 11]	A (Echinochloa oryzicola Vasing.) herbicidal ratio grade [1]	C (Monochoria vaginalis) herbicidal ratio grade [2]	B (Scirpus juncoides) herbicidal ratio grade [3]	a (transplanted Oryza sativa) effect on crop grade [4]	E (herbicidal effect grade) [8, 12]	H (herbicidal effect grade) [9, 12]	D (herbicidal effect grade) [10, 12]
Cc1cc(-c2nnc3c(C(=O)Nc4nnnn4C)ccc(C(F)(F)F)n23)n(C)n1 [2-062]	5 (Herbicidal ratio of 90% or more (almost completely withered))	5 (Herbicidal ratio of 90% or more (almost completely withered))	5 (Herbicidal ratio of 90% or more (almost completely withered))	5 (Herbicidal ratio of 90% or more (almost completely withered))	5 (Herbicidal ratio of 90% or more (almost completely withered))	5 (Herbicidal ratio of 90% or more (almost completely withered))	4 (Herbicidal ratio of 70% or more and less than 90%)	5 (Herbicidal ratio of 90% or more (almost completely withered))	5 (Herbicidal ratio of 90% or more (almost completely withered))	5 (Herbicidal ratio of 90% or more (almost completely withered))	–	–	–	–	–	–	–
CCn1nc2c(C(=O)Nc3nnnn3C)ccc(C(F)(F)F)n2c1=O [6-004]	–	–	–	–	3 (Herbicidal ratio of 40% or more and less than 70%)	2 (Herbicidal ratio of 20% or more and less than 40%)	0 (Herbicidal ratio of 5% or less (almost no effect))	2 (Herbicidal ratio of 20% or more and less than 40%)	4 (Herbicidal ratio of 70% or more and less than 90%)	5 (Herbicidal ratio of 90% or more (almost completely withered))	0 (Herbicidal ratio of 5% or less (almost no effect))	2 (Herbicidal ratio of 20% or more and less than 40%)	0 (Herbicidal ratio of 5% or less (almost no effect))	0 (Herbicidal ratio of 5% or less (almost no effect))	–	–	–
CCC(C)Sc1nnc2c(C(=O)Nc3nnnn3C)ccc(C(F)(F)F)n12 (stereo not drawn) [2-072]	5 (Herbicidal ratio of 90% or more (almost completely withered))	5 (Herbicidal ratio of 90% or more (almost completely withered))	5 (Herbicidal ratio of 90% or more (almost completely withered))	3 (Herbicidal ratio of 40% or more and less than 70%)	5 (Herbicidal ratio of 90% or more (almost completely withered))	5 (Herbicidal ratio of 90% or more (almost completely withered))	5 (Herbicidal ratio of 90% or more (almost completely withered))	5 (Herbicidal ratio of 90% or more (almost completely withered))	4 (Herbicidal ratio of 70% or more and less than 90%)	5 (Herbicidal ratio of 90% or more (almost completely withered))	–	–	–	–	–	–	–
COc1cccc(-c2nnc3c(C(=O)Nc4nnnn4C)ccc(C(F)(F)F)n23)c1 [2-044]	5 (Herbicidal ratio of 90% or more (almost completely withered))	5 (Herbicidal ratio of 90% or more (almost completely withered))	5 (Herbicidal ratio of 90% or more (almost completely withered))	4 (Herbicidal ratio of 70% or more and less than 90%)	5 (Herbicidal ratio of 90% or more (almost completely withered))	4 (Herbicidal ratio of 70% or more and less than 90%)	4 (Herbicidal ratio of 70% or more and less than 90%)	5 (Herbicidal ratio of 90% or more (almost completely withered))	5 (Herbicidal ratio of 90% or more (almost completely withered))	5 (Herbicidal ratio of 90% or more (almost completely withered))	–	–	–	–	–	–	–
C=CCn1nnnc1NC(=O)c1ccc(C(F)(F)F)n2c(C(C)C)nnc12 [2-091]	5 (Herbicidal ratio of 90% or more (almost completely withered))	5 (Herbicidal ratio of 90% or more (almost completely withered))	5 (Herbicidal ratio of 90% or more (almost completely withered))	0 (Herbicidal ratio of 5% or less (almost no effect))	4 (Herbicidal ratio of 70% or more and less than 90%)	4 (Herbicidal ratio of 70% or more and less than 90%)	5 (Herbicidal ratio of 90% or more (almost completely withered))	4 (Herbicidal ratio of 70% or more and less than 90%)	5 (Herbicidal ratio of 90% or more (almost completely withered))	3 (Herbicidal ratio of 40% or more and less than 70%)	–	–	–	–	–	–	–
Cn1nnnc1NC(=O)c1ccc(C(F)(F)F)n2c(CC[S+](C)[O-])nnc12 (stereo not drawn) [2-058]	4 (Herbicidal ratio of 70% or more and less than 90%)	5 (Herbicidal ratio of 90% or more (almost completely withered))	4 (Herbicidal ratio of 70% or more and less than 90%)	5 (Herbicidal ratio of 90% or more (almost completely withered))	4 (Herbicidal ratio of 70% or more and less than 90%)	4 (Herbicidal ratio of 70% or more and less than 90%)	4 (Herbicidal ratio of 70% or more and less than 90%)	5 (Herbicidal ratio of 90% or more (almost completely withered))	5 (Herbicidal ratio of 90% or more (almost completely withered))	5 (Herbicidal ratio of 90% or more (almost completely withered))	–	–	–	–	–	–	–
CC(C)c1nnc2c(C(=O)Nc3nnnn3C)ccc(C(F)(F)F)n12 [2-003]	5 (Herbicidal ratio of 90% or more (almost completely withered))	5 (Herbicidal ratio of 90% or more (almost completely withered))	5 (Herbicidal ratio of 90% or more (almost completely withered))	4 (Herbicidal ratio of 70% or more and less than 90%)	5 (Herbicidal ratio of 90% or more (almost completely withered))	4 (Herbicidal ratio of 70% or more and less than 90%)	3 (Herbicidal ratio of 40% or more and less than 70%)	–	–	–	–	–	–	–	5 (Herbicidal ratio of 90% or more (almost completely withered))	5 (Herbicidal ratio of 90% or more (almost completely withered))	5 (Herbicidal ratio of 90% or more (almost completely withered))
Cn1nnnc1NC(=O)c1ccc(C(F)(F)F)n2c(=O)n(C)nc12 [6-002]	–	–	–	–	3 (Herbicidal ratio of 40% or more and less than 70%)	3 (Herbicidal ratio of 40% or more and less than 70%)	2 (Herbicidal ratio of 20% or more and less than 40%)	4 (Herbicidal ratio of 70% or more and less than 90%)	5 (Herbicidal ratio of 90% or more (almost completely withered))	5 (Herbicidal ratio of 90% or more (almost completely withered))	4 (Herbicidal ratio of 70% or more and less than 90%)	2 (Herbicidal ratio of 20% or more and less than 40%)	3 (Herbicidal ratio of 40% or more and less than 70%)	0 (Herbicidal ratio of 5% or less (almost no effect))	–	–	–
Cn1nnnc1NC(=O)c1ccc(C(F)(F)F)n2c(C[S+]([O-])CC(F)(F)F)nnc12 (stereo not drawn) [2-035]	4 (Herbicidal ratio of 70% or more and less than 90%)	3 (Herbicidal ratio of 40% or more and less than 70%)	3 (Herbicidal ratio of 40% or more and less than 70%)	4 (Herbicidal ratio of 70% or more and less than 90%)	2 (Herbicidal ratio of 20% or more and less than 40%)	3 (Herbicidal ratio of 40% or more and less than 70%)	2 (Herbicidal ratio of 20% or more and less than 40%)	4 (Herbicidal ratio of 70% or more and less than 90%)	5 (Herbicidal ratio of 90% or more (almost completely withered))	5 (Herbicidal ratio of 90% or more (almost completely withered))	–	–	–	–	–	–	–
